Measurements taken from ChEMBL document CHEMBL4765312, “Capsaicin derivatives with nitrothiophene substituents: Design, synthesis and antibacterial activity against multidrug-resistant S. aureus” (Eur J Med Chem, 2020).
In brackets after ≈: the same amount, converted by molar mass. Activity calls are given as the source filed them. No cut-off for these calls is given here.

What was measured:
Staphylococcus aureus [1] = assay: Antibacterial activity against Staphylococcus aureus Newman strain assessed as reduction in bacterial growth incubated for 16 to 18 hrs by two fold serial dilution method; assay type: functional; conditions: time 16-18 hrs
Staphylococcus aureus [2] = assay: Antibacterial activity against mutidrug-resistant Staphylococcus aureus NRS100 assessed as reduction in bacterial growth incubated for 16 to 18 hrs by two fold serial dilution method; assay type: functional; conditions: time 16-18 hrs
Staphylococcus aureus [3] = assay: Antibacterial activity against multidrug-resistant Staphylococcus aureus NRS108 assessed as reduction in bacterial growth incubated for 16 to 18 hrs by two-fold serial dilution method; assay type: functional; conditions: time 16-18 hrs
Staphylococcus aureus [4] = assay: Antibacterial activity against multidrug-resistant Staphylococcus aureus NRS1 assessed as reduction in bacterial growth incubated for 16 to 18 hrs by two fold serial dilution method; assay type: functional; conditions: time 16-18 hrs
Staphylococcus aureus [5] = assay: Antibacterial activity against multidrug-resistant Staphylococcus aureus NRS70 assessed as reduction in bacterial growth incubated for 16 to 18 hrs by two fold serial dilution method; assay type: functional; conditions: time 16-18 hrs
[6] = Cytotoxicity against human HEK293T cells assessed as reduction in cell viability measured after 48 hrs by MTT assay; assay type: cell-based, HEK-293T
Staphylococcus aureus [7] = assay: Antibacterial activity against multidrug-resistant Staphylococcus aureus NRS271 assessed as reduction in bacterial growth incubated for 16 to 18 hrs by two fold serial dilution method; assay type: functional; conditions: time 16-18 hrs
Staphylococcus aureus [8] = assay: Bactericidal activity against Staphylococcus aureus Newman strain assessed as reduction in bacterial colonies formation after 24 hrs by crystal violet staining based assay; assay type: functional, organism-based
Staphylococcus aureus [9] = assay: Potency index, ratio of vancomycin MIC to test compound MIC for antibacterial activity against multidrug-resistant Staphylococcus aureus NRS1 assessed as reduction in bacterial growth incubated for 16 to 18 hrs by two fold serial dilution method; assay type: functional; conditions: time 16-18 hrs
Staphylococcus aureus [10] = assay: Antibiofilm activity against Staphylococcus aureus Newman strain assessed as biofilm formation at 0.78 ug/ml after 24 hrs by crystal violet staining based assay relative to control; assay type: functional; conditions: dose 0.78 µg/ml
Staphylococcus aureus [11] = assay: Potency index, ratio of vancomycin MIC to test compound MIC for antibacterial activity against multidrug-resistant Staphylococcus aureus NRS108 assessed as reduction in bacterial growth incubated for 16 to 18 hrs by two-fold serial dilution method; assay type: functional; conditions: time 16-18 hrs
Staphylococcus aureus [12] = assay: Potency index, ratio of vancomycin MIC to test compound MIC for antibacterial activity against multidrug-resistant Staphylococcus aureus NRS271 assessed as reduction in bacterial growth incubated for 16 to 18 hrs by two fold serial dilution method; assay type: functional; conditions: time 16-18 hrs
Staphylococcus aureus [13] = assay: Potency index, ratio of vancomycin MIC to test compound MIC for antibacterial activity against multidrug-resistant Staphylococcus aureus NRS70 assessed as reduction in bacterial growth incubated for 16 to 18 hrs by two fold serial dilution method; assay type: functional; conditions: time 16-18 hrs
Staphylococcus aureus [14] = assay: Potency index, ratio of vancomycin MIC to test compound MIC for antibacterial activity against mutidrug-resistant Staphylococcus aureus NRS100 assessed as reduction in bacterial growth incubated for 16 to 18 hrs by two fold serial dilution method; assay type: functional; conditions: time 16-18 hrs

`COc1cc(CNC(=O)c2cccs2)ccc1OC(=O)c1ccc([N+](=O)[O-])s1` showed an MIC (Staphylococcus aureus [1]) of over 50 µg/mL.
For `O=C(NCc1ccc(OC(=O)c2ccc([N+](=O)[O-])s2)c([N+](=O)[O-])c1)c1ccc([N+](=O)[O-])s1`, the MIC (Staphylococcus aureus [1]) was 6.25 µg/mL (≈ 13.1 µM).
With `COc1cc(CNC(=O)c2ccc([N+](=O)[O-])s2)ccc1O` the MIC (Staphylococcus aureus [1]) was over 50 µg/mL.
In the case of `COc1cc(CNC(=O)c2ccc([N+](=O)[O-])s2)ccc1OC(=O)c1cccc([N+](=O)[O-])c1`, the MIC (Staphylococcus aureus [1]) is reported as over 50 µg/mL.
With `COc1cc(CNC(=O)c2ccc([N+](=O)[O-])s2)ccc1OC(=O)c1ccc([N+](=O)[O-])s1` the MIC (Staphylococcus aureus [2]) was 0.78 µg/mL (≈ 1.68 µM), the MIC (Staphylococcus aureus [3]) was 1.56 µg/mL (≈ 3.37 µM) and the MIC (Staphylococcus aureus [4]) was 0.78 µg/mL (≈ 1.68 µM). For the same molecule, the MIC (Staphylococcus aureus [5]) was 0.78 µg/mL (≈ 1.68 µM), the CC50 at 48 h [6] was 61 µg/mL (≈ 132 µM) and the MIC (Staphylococcus aureus [7]) was 0.78 µg/mL (≈ 1.68 µM). It also gave an MIC (Staphylococcus aureus [1]) of 1.56 µg/mL (≈ 3.37 µM).
For `COc1cc(CNC(=O)c2ccc([N+](=O)[O-])s2)ccc1OC(=O)c1ccc([N+](=O)[O-])o1`, the MIC (Staphylococcus aureus [1]) was 6.25 µg/mL (≈ 14 µM).
With `O=C(NCc1ccc(OC(=O)c2ccc([N+](=O)[O-])s2)cc1)c1ccc([N+](=O)[O-])s1` the MIC (Staphylococcus aureus [2]) was 3.13 µg/mL (≈ 7.22 µM), the MIC (Staphylococcus aureus [3]) was 3.13 µg/mL (≈ 7.22 µM) and the MIC (Staphylococcus aureus [4]) was 0.78 µg/mL (≈ 1.8 µM). The MIC (Staphylococcus aureus [5]) was 0.78 µg/mL (≈ 1.8 µM), the CC50 at 48 h [6] was 251 µg/mL (≈ 579 µM) and the MIC (Staphylococcus aureus [7]) was 1.56 µg/mL (≈ 3.6 µM). It also gave an MIC (Staphylococcus aureus [1]) of 0.78 µg/mL (≈ 1.8 µM).
`COc1cc(CNC(=O)c2ccc([N+](=O)[O-])s2)ccc1OC(=O)c1cccs1` gave an MIC (Staphylococcus aureus [1]) of over 50 µg/mL.
In the case of `COc1cc(CNC(=O)/C=C/c2ccc([N+](=O)[O-])s2)ccc1OC(=O)c1ccc([N+](=O)[O-])s1`, the MIC (Staphylococcus aureus [1]) is reported as over 50 µg/mL.
Molecule `COc1cc(CNC(=O)c2ccc([N+](=O)[O-])o2)ccc1OC(=O)c1ccc([N+](=O)[O-])s1` has an MIC (Staphylococcus aureus [1]) of 3.13 µg/mL (≈ 7 µM).
`CCCCCCCCCC(=O)NCc1ccc(OC(=O)c2ccc([N+](=O)[O-])s2)c(OC)c1` gave an MIC (Staphylococcus aureus [1]) of over 50 µg/mL.
Work on `O=C(NCc1ccc(OC(=O)c2ccc([N+](=O)[O-])s2)c(Cl)c1)c1ccc([N+](=O)[O-])s1` yielded an MIC (Staphylococcus aureus [2]) of 3.13 µg/mL (≈ 6.69 µM), an MIC (Staphylococcus aureus [3]) of 1.56 µg/mL (≈ 3.33 µM) and an MIC (Staphylococcus aureus [4]) of 0.78 µg/mL (≈ 1.67 µM). The MIC (Staphylococcus aureus [5]) was 0.39 µg/mL (≈ 0.834 µM), the MIC (Staphylococcus aureus [7]) was 1.56 µg/mL (≈ 3.33 µM) and the MIC (Staphylococcus aureus [1]) was 0.78 µg/mL (≈ 1.67 µM).
`O=C(Nc1ccc([N+](=O)[O-])s1)c1ccc(CNC(=O)c2ccc([N+](=O)[O-])s2)cc1` showed an MIC (Staphylococcus aureus [1]) of over 50 µg/mL.
Molecule `COc1cc(CNC(=O)c2ccc([N+](=O)[O-])s2)ccc1OC(=O)c1ncc([N+](=O)[O-])n1C` has an MIC (Staphylococcus aureus [1]) of over 50 µg/mL.
`O=C(NCc1ccc(OC(=O)c2ccc([N+](=O)[O-])s2)c(F)c1)c1ccc([N+](=O)[O-])s1` gave an MIC (Staphylococcus aureus [1]) of 3.13 µg/mL (≈ 6.93 µM).
In the case of `CN[C@H](CC(C)C)C(=O)N[C@H]1C(=O)N[C@@H](CC(N)=O)C(=O)N[C@H]2C(=O)N[C@H]3C(=O)N[C@H](C(=O)N[C@H](C(=O)O)c4cc(O)cc(O)c4-c4cc3ccc4O)[C@H](O)c3ccc(c(Cl)c3)Oc3cc2cc(c3O[C@@H]2O[C@H](CO)[C@@H](O)[C@H](O)[C@H]2O[C@H]2C[C@](C)(N)[C@H](O)[C@H](C)O2)Oc2ccc(cc2Cl)[C@H]1O` [VANCOMYCIN], the Activity (Staphylococcus aureus [8]) is reported as “inactive”, the MIC (Staphylococcus aureus [2]) is reported as 0.78 µg/mL (≈ 0.538 µM) and the MIC (Staphylococcus aureus [3]) is reported as 0.78 µg/mL (≈ 0.538 µM). For the same molecule, the MIC (Staphylococcus aureus [4]) was 1.56 µg/mL (≈ 1.08 µM), the MIC (Staphylococcus aureus [5]) was 0.39 µg/mL (≈ 0.269 µM) and the MIC (Staphylococcus aureus [7]) was 0.78 µg/mL (≈ 0.538 µM). It also gave an MIC (Staphylococcus aureus [1]) of 0.78 µg/mL (≈ 0.538 µM).
In the case of `O=C(NCc1ccc(NC(=O)c2ccc([N+](=O)[O-])s2)cc1)c1ccc([N+](=O)[O-])s1`, the MIC (Staphylococcus aureus [1]) is reported as over 50 µg/mL.
With `COc1cc(CNC(=O)CCCC/C=C/C(C)C)ccc1O` [CAPSAICIN] the MIC (Staphylococcus aureus [1]) was over 50 µg/mL.
`COc1cc(CNC(=O)c2ncc([N+](=O)[O-])n2C)ccc1OC(=O)c1ccc([N+](=O)[O-])s1` gave an MIC (Staphylococcus aureus [1]) of over 50 µg/mL.
With `COc1cc(CNC(=O)c2cccc([N+](=O)[O-])c2)ccc1OC(=O)c1ccc([N+](=O)[O-])s1` the MIC (Staphylococcus aureus [1]) was over 50 µg/mL.
With `O=C(NCc1ccc(OC(=O)c2ccc([N+](=O)[O-])s2)c(C(F)(F)F)c1)c1ccc([N+](=O)[O-])s1` the MIC (Staphylococcus aureus [1]) was 3.13 µg/mL (≈ 6.24 µM).
For `COc1cc(CNC(=O)c2ccc([N+](=O)[O-])o2)ccc1OC(=O)c1ccc([N+](=O)[O-])o1`, the MIC (Staphylococcus aureus [1]) was 3.13 µg/mL (≈ 7.26 µM).
For `O=C(NCc1ccc(OC(=O)c2ccc([N+](=O)[O-])s2)c(Br)c1)c1ccc([N+](=O)[O-])s1`, the MIC (Staphylococcus aureus [1]) was 6.25 µg/mL (≈ 12.2 µM).
In the case of `O=C(NCc1ccc(-c2noc(-c3ccc([N+](=O)[O-])s3)n2)cc1)c1ccc([N+](=O)[O-])s1`, the Ratio (Staphylococcus aureus [9]) is reported as 2, the Activity (Staphylococcus aureus [8]) is reported as “Active” and the MIC (Staphylococcus aureus [2]) is reported as 0.39 µg/mL (≈ 0.853 µM). It also gave an MIC (Staphylococcus aureus [3]) of 0.2 µg/mL (≈ 0.437 µM), an MIC (Staphylococcus aureus [4]) of 0.39 µg/mL (≈ 0.853 µM) and an MIC (Staphylococcus aureus [5]) of 0.2 µg/mL (≈ 0.437 µM). For the same molecule, the Activity (Staphylococcus aureus [10]) was 80%, the CC50 at 48 h [6] was 126 µg/mL (≈ 276 µM) and the MIC (Staphylococcus aureus [7]) was 0.2 µg/mL (≈ 0.437 µM). For the same molecule, the MIC (Staphylococcus aureus [1]) was 0.78 µg/mL (≈ 1.71 µM), the Ratio (Staphylococcus aureus [11]) was 2 and the Ratio (Staphylococcus aureus [12]) was 2. For the same molecule, the Ratio (Staphylococcus aureus [13]) was 2 and the Ratio (Staphylococcus aureus [14]) was 2.
With `COc1cc(OC(=O)c2ccc([N+](=O)[O-])s2)ccc1CNC(=O)c1ccc([N+](=O)[O-])s1` the MIC (Staphylococcus aureus [2]) was 0.78 µg/mL (≈ 1.68 µM), the MIC (Staphylococcus aureus [3]) was 1.56 µg/mL (≈ 3.37 µM) and the MIC (Staphylococcus aureus [4]) was 0.78 µg/mL (≈ 1.68 µM). It also gave an MIC (Staphylococcus aureus [5]) of 0.78 µg/mL (≈ 1.68 µM), an MIC (Staphylococcus aureus [7]) of 0.78 µg/mL (≈ 1.68 µM) and an MIC (Staphylococcus aureus [1]) of 1.56 µg/mL (≈ 3.37 µM).
`CN(Cc1ccc(N(C)C(=O)c2ccc([N+](=O)[O-])s2)cc1)C(=O)c1ccc([N+](=O)[O-])s1` gave an MIC (Staphylococcus aureus [1]) of 6.25 µg/mL (≈ 13.6 µM).
`NC[C@H]1O[C@H](O[C@H]2[C@H](O)[C@@H](O[C@H]3O[C@H](CO)[C@@H](O)[C@H](N)[C@H]3O)[C@H](N)C[C@@H]2N)[C@H](O)[C@@H](O)[C@@H]1O` [KANAMYCIN] showed an MIC (Staphylococcus aureus [2]) of 1.56 µg/mL (≈ 3.22 µM), an MIC (Staphylococcus aureus [3]) of over 50 µg/mL and an MIC (Staphylococcus aureus [4]) of over 50 µg/mL. It also gave an MIC (Staphylococcus aureus [5]) of over 50 µg/mL, an MIC (Staphylococcus aureus [7]) of 3.13 µg/mL (≈ 6.46 µM) and an MIC (Staphylococcus aureus [1]) of 3.13 µg/mL (≈ 6.46 µM).
`O=C(NCc1ccc(Oc2ccc([N+](=O)[O-])s2)cc1)c1ccc([N+](=O)[O-])s1` showed an MIC (Staphylococcus aureus [1]) of 3.13 µg/mL (≈ 7.72 µM).
In the case of `COc1cc(CNC(=O)c2ccc([N+](=O)[O-])s2)cc(OC)c1OC(=O)c1ccc([N+](=O)[O-])s1`, the MIC (Staphylococcus aureus [1]) is reported as 3.13 µg/mL (≈ 6.34 µM).
`COc1cc(CNC(=O)c2ccc([N+](=O)[O-])s2)ccc1OC(=O)/C=C/c1ccc([N+](=O)[O-])s1` showed an MIC (Staphylococcus aureus [1]) of over 50 µg/mL.
With `Cc1cc(CNC(=O)c2ccc([N+](=O)[O-])s2)ccc1OC(=O)c1ccc([N+](=O)[O-])s1` the MIC (Staphylococcus aureus [2]) was 0.39 µg/mL (≈ 0.872 µM), the MIC (Staphylococcus aureus [3]) was 1.56 µg/mL (≈ 3.49 µM) and the MIC (Staphylococcus aureus [4]) was 0.39 µg/mL (≈ 0.872 µM). It also gave an MIC (Staphylococcus aureus [5]) of 0.39 µg/mL (≈ 0.872 µM), a CC50 at 48 h [6] of 168 µg/mL (≈ 375 µM) and an MIC (Staphylococcus aureus [7]) of 0.39 µg/mL (≈ 0.872 µM). It also gave an MIC (Staphylococcus aureus [1]) of 0.39 µg/mL (≈ 0.872 µM).
